Results taken from patent US11634452B2, “Compounds for treating neurodegenerative disorders” (ETHNODYNE, priority 2017, dated 2023).

System: primary rat cortical neurons injured with Aβ1-42
Test: Neuroprotective effect on an in vitro model of Alzheimer disease
Assay type: cell-based
Procedure: These peptides contribute to cerebrovascular lesions and are neurotoxic. This study investigated the neuroprotective effect of the plant extract of the invention on rat primary cortical cultures following exposure to Aβ1-42 in an in vitro AD model (Callizot. N., et al., 2013).
Rat cortical neurons were cultured as described in Example 6.
The cortical neurons were intoxicated with amyloid beta peptides solutions after 11 days of culture in presence of tested compound CR777.
Briefly, Aβ1-42 peptide (Batch: APN09080-1-1, Abcam, United Kingdom) was dissolved in the defined culture medium B27 mentioned above, devoid of serum, at an initial concentration of 40 μmol/L. This solution was gently agitated for 3 days at 37° C. in the dark and immediately used after being properly diluted in culture medium to the concentrations used (20 μM corresponding to 2 μM of AβO, measuring by WB, for survival, neurite network, tau phosphor and caspase 3 activation and 2.5 μM corresponding to 0.25 μM of AβO, for synapses evaluation).
CR777 was solved in DMSO at 10 mM and diluted in culture medium at different concentrations (see table below). The compound was tested on one primary cortical culture in 96 well plates (6 wells per conditions), and was pre-incubated 1 hour before Aβ1-42 application for 24 hours.
24 hours after intoxication, the cell culture supernatant was taken off and the cortical neurons were fixed by a cold solution of ethanol (95%) and acetic acid (5%) for 5 min at −20° C. • Plate 1: Immunostainning (MAP-2/Tau Phosphor)
After permeabilization with 0.1% of saponin, cells were incubated for 2 hours with a) a mouse monoclonal antibody anti phosphoT at dilution of 1/400 in PBS containing 1% fetal calf serum and 0.1% of saponin and b) a chicken polyclonal antibody anti microtubule-associated-protein 2 (MAP-2) at dilution of 1/1000 in PBS containing 1% fetal calf serum and 0.1% of saponin (this antibody stains specifically cell bodies and neurites, allowing study of neuronal cell survival and neurite network).
(§1) For each condition, 30 pictures/well (representative of ˜the all well area) were taken automatically using ImageXpress (Molecular Devices) with 20× magnification. All images were taken with the same conditions. Analysis were performed automatically by using Custom Module Editor (Molecular Devices).
The following endpoints were investigated per culture well: • The total neuron survival (MAP-2 staining), • The neurite network (MAP-2 staining) and • hyperphophorylation of T protein (pT) into neurons (pT/MAP-2). • Plate 2: Immunostainning (MAP-2/Caspase 3)
as §1, with “Devices). • The total number of caspase 3 positive neuron (overlapping caspase3/MAP-2) were investigated per culture well:” for “Devices).”
Data is expressed in percentage of control conditions (no injury, no compound=100%). All values are expressed as mean+/−SEM (standard error of the mean) from 6 wells per condition per culture. Neuro-Sys performed graphs and statistical analyses on the different conditions (ANOVA followed by Dunnett's test when allowed, using GraphPad Prism software version 5.0).

[1] = CR777 1 nM to 1 μM added 1 h before Aβ1-42 (20 μM, 24 h)
[2] = CR777 all doses (1 nM to 1 μM), Aβ1-42 20 μM, 24 h

CC1=C(CO)C(=O)O[C@@H]([C@@H](C)[C@H]2CCC3C4C[C@H](SC[C@H](NC(=O)CC[C@@H](N)C(=O)O)C(=O)NCC(=O)O)[C@]5(O)[C@@H](O)C=CC(=O)[C@]5(C)C4CC[C@@]32C)C1 (stereo partly shown) [CR777]
neurite network [1]: significant protective effect
neuron survival [1]: significant protective effect
caspase 3 activation [2]: decrease of caspase 3 activation
tau hyperphosphorylation [2]: significant decrease
